Here are results for 3 compounds from US3965109A, “Certain aryl amino pyridines” (priority 1971, dated 1976).

Where two headings read alike, the source gives them in different places.

Data set [1] has as its system Phytophthora infestans (tomato). It is filed as in vivo. To be noted: 3 days.
Data set [2] deals with Plasmopara viticola (vine). The data set is described as follows: Fungicidal test against foliar disease C (foliage spray plus soil drench). It counts as in vivo. To be noted: 10 days.
For another data set, the system named is Uncinula necator (vine). The data set is described as follows: Fungicidal test against foliar disease D (foliage spray plus soil drench). It counts as in vivo. Conditions: 10 days.
Data set [3] concerns Tetranychus telarius (red spider mites, adults). The data set is described as follows: Pest toxicity test. It counts as in vivo. To be noted: 0.1% by weight; French bean; 3 days.
The test system of data set [4] is Tetranychus telarius (red spider mites, eggs). The data set is described as follows: Pest toxicity test. Conditions: 0.1% by weight; French bean; 3 days. It is filed as in vivo.
A further data set deals with Aphis fabae. The data set is described as follows: Pest toxicity test. It is filed as in vivo. To be noted: 0.1% by weight; broad bean; 2 days.
The subject of a further data set is Megoura viceae. The data set is described as follows: Pest toxicity test. It counts as in vivo. Conditions: 0.1% by weight; broad bean; 2 days.
Data set [5] relates to Aedes aegypti (mosquito larvae). The data set is described as follows: Pest toxicity test. It counts as in vivo. Conditions: 0.01% by weight; water; 1 day.
Data set [6] has as its system Aedes aegypti (mosquito adults). The data set is described as follows: Pest toxicity test. Conditions: 0.01% by weight; plywood; 1 day. It counts as in vivo.
The subject of data set [7] is Pieris brassicae (cabbage white caterpillars). The data set is described as follows: Pest toxicity test. Conditions: 0.1% by weight, 2 days. It is filed as in vivo.
Data set [8] relates to Plutella maculipennis (diamond back moth larvae). The data set is described as follows: Pest toxicity test. It counts as in vivo. To be noted: in vivo.
For data set [9], the system named is Phaedon cochleariae (mustard beetles). The data set is described as follows: Pest toxicity test. Conditions: in vivo. It is filed as in vivo.
In data set [10] the test system is Agriolimax reticulatus (slugs). The data set is described as follows: Molluscicidal activity test. It is filed as in vivo, Agriolimax reticulatus (Mull). Conditions: pellet with 4% by weight; 6 days; 10°C. A digest of the protocol: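 Compound was applied to a calf feeding pellet at 4% by weight active ingredient after 24 h air drying. Two replicates, each of 2 slugs starved 24 h, were kept with a moist filter paper at 10°C, and kill was assessed after 6 days.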

The next data set relates to Lettuce. The data set is described as follows: Herbicidal test, pre- and post-emergence. It is filed as in vivo. Conditions: 10 kg/ha; scale 0 to 3 (complete kill).
A further data set relates to Tomato. The data set is described as follows: Herbicidal test, pre- and post-emergence. It counts as in vivo. To be noted: 10 kg/ha; scale 0 to 3 (complete kill).
A further data set concerns Wheat. The data set is described as follows: Herbicidal test, pre- and post-emergence. To be noted: 10 kg/ha; scale 0 to 3 (complete kill). It counts as in vivo.
A further data set has as its system Maize. The data set is described as follows: Herbicidal test, pre- and post-emergence. It counts as in vivo. Conditions: 10 kg/ha; scale 0 to 3 (complete kill).
Data set [11] relates to Agrobacterium tumifaciens. The data set is described as follows: Antibacterial agar test (B1). It is filed as cell-based. Conditions: 50 ppm; 5 days.
Data set [12] has as its system Corynebacterium michiganense. The data set is described as follows: Antibacterial agar test (B2). To be noted: 50 ppm; 5 days. It counts as cell-based. In outline:
(§1)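 Compound was dissolved or suspended in acetone and mixed into nutrient agar to 50 ppm final, then dried overnight in Petri dishes. Plates were inoculated with the bacteria via multipoint inoculator and antibacterial activity was graded after 5 days.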

The subject of another data set is Xanthomonas malvacearum. The data set is described as follows: Antibacterial agar test (B3). It is filed as cell-based. To be noted: 50 ppm; 5 days. A digest of the protocol:
as §1

In another data set the test system is Erwinia carotovora. The data set is described as follows: Antibacterial agar test (B4). It counts as cell-based. Conditions: 50 ppm; 5 days.
The test system of a further data set is Xanthomonas oryzae. It is filed as cell-based. To be noted: 50 ppm; 5 days.
The test system of another data set is Pseudomonas syringae. The data set is described as follows: Antibacterial agar test (B6). To be noted: 50 ppm; 5 days. It is filed as cell-based.
Another data set deals with Streptomyces scabies. The data set is described as follows: Antibacterial agar test (B7). It counts as cell-based. To be noted: 50 ppm; 5 days.
The test system of data set [13] is larvae of the blowfly (Lucilia serrata). The data set is described as follows: Insecticidal test on blowfly larvae on treated filter paper. It counts as in vivo. Details: key: 5 represents inseccticidal activity equal to that of the known insecticide; 6 represents activity 10 times that of the standard. To be noted: scale of 1 to 6; filter paper with horse serum.

Data set [14] deals with Puccinia recondita (wheat). The data set is described as follows: Fungicidal test against foliar disease A (foliage spray plus soil drench). It counts as in vivo. To be noted: 10 days.
In data set [15] the test system is Piricularia oryzae (rice). It counts as in vivo. Conditions: 7 days.
Data set [16] concerns Venturia inaequalis (apple). The data set is described as follows: Fungicidal test against foliar disease G (foliage spray plus soil drench). It is filed as in vivo. To be noted: 21 days. As to the method:
This Example illustrates the fungicidal properties of compounds used as active ingredients in the compositions of the invention. The compounds were tested against a wide variety of foliar fungal diseases of plants. In the test, a composition comprising an aqueous solution or suspension of the test compound was sprayed on to the foliage or uninfected plants; the soil in which the plants were growing was also drenched with the composition. The compositions used for spraying and drencing contained 100 parts per million (ppm.) of the test compound except where otherwise stated in the table of results below. After spraying and drenching, the plants were then exposed to infection with the diseases it was desired to control, along with control plants not treated with the compound. After a period of days, depending upon the particular disease, the extent of the disease was visually assessed, as a percentage of the disease established upon the control plants which had not been treated with the compound under test, according to the grading scheme below
In Table 2 below the names of the disease is given in the first column, and in the second column is given the time which elapsed between exposing the plants to infection and assessing the amount of disease.

The test system of data set [17] is Musca domestica (houseflies). The data set is described as follows: Pest toxicity test, contact test. It counts as in vivo. Conditions: 0.1% by weight; milk/sugar; 2 days; flies sprayed directly.
The subject of data set [18] is Meloidogyne incognita (nematodes). The data set is described as follows: Pest toxicity test. It is filed as in vivo. Conditions: 0.01% by weight; water; 1 day.
The mark [19] stands for this setting: 50 ppm spray + 200 ppm soil drench.

As to `N#Cc1cc([N+](=O)[O-])c(Nc2c(Cl)c(F)nc(F)c2Cl)c([N+](=O)[O-])c1` [Compound 34, 4(4-Cyano-2,6-dinitroanilino)-3,5-dichloro-2,6-difluoropyridine], the “Amount of disease grading, disease B (Table 4)” value in data set [1] (100 ppm spray and drench) was 3 (0 to 5). The “Amount of disease grading, disease C (Table 4)” value in data set [2] (100 ppm spray and drench) is on record as 3 (0 to 5). The “Amount of disease grading, disease D (Table 4)” value in the data set with Uncinula necator (vine) (100 ppm spray and drench) is on record as 3 (0 to 5). Moreover, the “Mortality grading (kill)” value in data set [3] is recorded as 3 (3 represents over 90% kill); in data set [4], 3 (3 represents over 90% kill); in the data set on Aphis fabae it was 3 (3 represents over 90% kill); in the data set on Megoura viceae, 0 (O represents less than 30% kill); in [5], 3 (3 represents over 90% kill); in [6] it was 0 (O represents less than 30% kill). For the same compound, the “Mortality grading (kill)” value in data set [7] is 0 (O represents less than 30% kill); in [8] it was 2 (key: O represents less than 30% kill; 1 represents 30 - 49% kill; 2 represents 60 - 90% kill; 3 represents over 90% kill; C indicates a chemosterilant effect.; A indicates an antifeeding effect.); in data set [9] it was 0 (key: O represents less than 30% kill; 1 represents 30 - 49% kill; 2 represents 60 - 90% kill; 3 represents over 90% kill; C indicates a chemosterilant effect.; A indicates an antifeeding effect.). For the same compound, in data set [10], the “% Kill of slugs” value came out at 100%. Also, the “Damage to plants, post-emergence” value with Lettuce, with Tomato, in the data set with Wheat and with Maize was 0 throughout. Also, the “Damage to plants, pre-emergence” value in the data set with Lettuce stood at 3; with Tomato, 2; in the data set with Wheat, 3; in the data set with Maize it was 3. The “Antibacterial activity grading B1” value in [11] is reported as 0 (61 to 100). For the same compound, the “Antibacterial activity grading B2” value in data set [12] is recorded as 3 (0 to 5). Besides, in the data set on Xanthomonas malvacearum, the “Antibacterial activity grading B3” value is reported as 2 (6 to 25). For the same compound, in the data set on Erwinia carotovora, the “Antibacterial activity grading B4” value is recorded as 0 (61 to 100). Moreover, the “Antibacterial activity grading B5” value in the data set on Xanthomonas oryzae was 2 (6 to 25). In addition, in the data set on Pseudomonas syringae, the “Antibacterial activity grading B6” value is 3 (0 to 5). Also, in the data set with Streptomyces scabies, the “Antibacterial activity grading B7” value is reported as 3 (0 to 5). Besides, the “Activity relative to lindane” value in [13] was determined as 5.
With `Fc1nc(F)c(Cl)c(Nc2c(Cl)cccc2Cl)c1Cl` [Compound 3, 3,5-Dichloro-2,6-difluoro-4(2,6-dichloroanilino)pyridine], the “Amount of disease grading, disease A” value in [14] (setting [19]) is on record as 0 (61 to 100). Besides, the “Amount of disease grading, disease B” value in data set [1] (setting [19]) is 0 (61 to 100). Moreover, the “Amount of disease grading, disease C” value in data set [2] (setting [19]) is listed as 2 (6 to 25). Also, the “Amount of disease grading, disease D” value in the data set on Uncinula necator (vine) (setting [19]) is listed as 3 (0 to 5). Besides, the “Amount of disease grading, disease E” value in data set [15] (setting [19]) is on record as 0 (61 to 100). Moreover, the “Amount of disease grading, disease G” value in data set [16] (setting [19]) is reported as 0 (61 to 100). Further, the “Mortality grading (kill)” value in data set [3] is 0 (O represents less than 30% kill); in data set [4], 2 (2 represents 60 - 90% kill); in the data set with Aphis fabae, 0 (O represents less than 30% kill); in the data set with Megoura viceae it was 0 (O represents less than 30% kill); in [5], 0 (O represents less than 30% kill); in [6] it was 0 (O represents less than 30% kill). The “Mortality grading (kill)” value in data set [7] is reported as 0 (O represents less than 30% kill); in data set [8], 0 (key: O represents less than 30% kill; 1 represents 30 - 49% kill; 2 represents 60 - 90% kill; 3 represents over 90% kill; C indicates a chemosterilant effect.; A indicates an antifeeding effect.); in data set [9], 0 (key: O represents less than 30% kill; 1 represents 30 - 49% kill; 2 represents 60 - 90% kill; 3 represents over 90% kill; C indicates a chemosterilant effect.; A indicates an antifeeding effect.); in [18], 2 (2 represents 60 - 90% kill). Also, the “Mortality grading (kill), contact test” value in data set [17] is given as 0 (O represents less than 30% kill).
Regarding `COc1nc(F)c(Cl)c(Nc2c(F)c(F)c(C#N)c(F)c2F)c1Cl` [Compound 21, 2-Fluoro-3,5-dichloro-6methoxy-4(4-cyano-2,3,5,6-tetrafluoroanilino)pyridine], in [14] (100 ppm spray and drench), the “Amount of disease grading, disease A” value was 3 (0 to 5). Also, the “Amount of disease grading, disease C” value in data set [2] (100 ppm spray and drench) is listed as 3 (0 to 5). Further, in data set [15] (100 ppm spray and drench), the “Amount of disease grading, disease E” value was 3 (0 to 5). The “Amount of disease grading, disease G” value in data set [16] (100 ppm spray and drench) was 3 (0 to 5). In addition, the “Mortality grading (kill)” value in data set [3] is given as 0 (O represents less than 30% kill); in data set [4], 0 (O represents less than 30% kill); with Aphis fabae, 0 (O represents less than 30% kill); in the data set with Megoura viceae it was 0 (O represents less than 30% kill); in [5], 3 (3 represents over 90% kill); in data set [6], 0 (O represents less than 30% kill). Further, the results for the “Mortality grading (kill)” value in [7], in [8] and in [9] were 0 (O represents less than 30% kill), 1 (key: O represents less than 30% kill; 1 represents 30 - 49% kill; 2 represents 60 - 90% kill; 3 represents over 90% kill; C indicates a chemosterilant effect.; A indicates an antifeeding effect.) and 0 (key: O represents less than 30% kill; 1 represents 30 - 49% kill; 2 represents 60 - 90% kill; 3 represents over 90% kill; C indicates a chemosterilant effect.; A indicates an antifeeding effect.), respectively. For the same compound, the “Mortality grading (kill), contact test” value in [17] was 2 (2 represents 60 - 90% kill). Also, in [11], the “Antibacterial activity grading B1” value was 2 (6 to 25). Besides, the “Antibacterial activity grading B2” value in data set [12] is reported as 3 (0 to 5). Further, the “Antibacterial activity grading B3” value in the data set with Xanthomonas malvacearum is on record as 3 (0 to 5). Also, in the data set with Erwinia carotovora, the “Antibacterial activity grading B4” value was 3 (0 to 5). Also, the “Antibacterial activity grading B5” value with Xanthomonas oryzae is recorded as 2 (6 to 25). The “Antibacterial activity grading B6” value in the data set on Pseudomonas syringae is 3 (0 to 5). In addition, the “Antibacterial activity grading B7” value in the data set on Streptomyces scabies is listed as 3 (0 to 5).
